This test addresses T1, human V1a receptor (Homo sapiens, UniProt P37288).
T1 construct: expressed in transfected cells; host or cells: HEK293 cells, transiently transfected; cell membranes
Description: human V1a receptor binding studies (3H-Vasopressin, SPA beads). The conditions noted are these: membranes of HEK293 cells transiently transfected with human V1a receptor, Ki by Cheng-Prussoff from IC50, read-out: pKi hV1a (converted). The method, then: The human V1a receptor was cloned by RT-PCR from total human liver RNA. The coding sequence was subcloned in an expression vector after sequencing to confirm the identity of the amplified sequence. […] Cell membranes were prepared from HEK293 cells transiently transfected with the expression vector and grown in 20 liter fermenters with the following protocol.
50 g of cells are re-suspended in 30 ml freshly prepared ice cold Lysis buffer (50 mM HEPES, 1 mM EDTA, 10 mM MgCl2 adjusted to pH=7.4+complete cocktail of protease inhibitor (Roche Diagnostics)). Homogenized with Polytron for 1 min and sonicated on ice for 2×2 minutes at 80% intensity (Vibracell sonicator). The preparation is centrifuged 20 min at 500 g at 4° C., the pellet is discarded and the supernatant centrifuged 1 hour at 43′000 g at 4° C. (19′000 rpm). The pellet is re-suspended in 12.5 ml Lysis buffer+12.5 ml Sucrose 20% and homogenized using a Polytron for 1-2 min. The protein concentration is determined by the Bradford method and aliquots are stored at −80° C. until use. For binding studies 60 mg Yttrium silicate SPA beads (Amersham) are mixed with an aliquot of membrane in binding buffer (50 mM Tris, 120 mM NaCl, 5 mM KCl, 2 mM CaCl2, 10 mM MgCl2) for 15 minutes with mixing. 50 μl of bead/membrane mixture is then added to each well of a 96 well plate, followed by 50 μl of 4 nM 3H-Vasopressin (American Radiolabeled Chemicals). For total binding measurement 100 μl of binding buffer are added to the respective wells, for non-specific binding 100 μl of […] cold vasopressin and for compound testing 100 μl of a serial dilution of each compound in 2% DMSO. The plate is incubated 1 h at room temperature, centrifuged 1 min at 1000 g and counted on a Packard Top-Count. Non-specific binding counts are subtracted from each well and data is normalized to the maximum specific binding set at 100%. To calculate an IC 50 the curve is fitted using a non-linear regression model (XLfit) and the Ki is calculated using the Cheng-Prussoff equation.

T1 sequence (P37288 whole entry): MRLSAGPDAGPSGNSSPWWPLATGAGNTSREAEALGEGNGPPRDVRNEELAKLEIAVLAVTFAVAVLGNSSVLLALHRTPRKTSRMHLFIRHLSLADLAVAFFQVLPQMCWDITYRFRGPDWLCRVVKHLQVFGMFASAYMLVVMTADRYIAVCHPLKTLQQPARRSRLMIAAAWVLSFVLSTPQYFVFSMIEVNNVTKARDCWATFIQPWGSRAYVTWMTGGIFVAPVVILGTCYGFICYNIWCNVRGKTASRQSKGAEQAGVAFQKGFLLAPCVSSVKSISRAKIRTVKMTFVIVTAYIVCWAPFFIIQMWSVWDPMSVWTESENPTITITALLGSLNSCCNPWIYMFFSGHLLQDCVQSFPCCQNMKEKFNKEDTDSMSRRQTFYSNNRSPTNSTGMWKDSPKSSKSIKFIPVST

In the case of `CCCCCC1CCC2(CC1)OC(N1CCC3(CC1)OCc1ccccc13)=NC2=O` (single isomer, unassigned; diastereomer b) [Example 129, 8-Pentyl-2-(1′H,3H-spiro[2-benzofuran-1,4′-piperidin]-1′-yl)-1-oxa-3-azaspiro[4.5]dec-2-en-4-one diastereomer b], the Ki is 158 nM.

For the compound `CCOC(=O)C1[C@H]2CC3(C[C@@H]12)OC(N1CCC2(CC1)OCc1ccccc12)=NC3=O` (single isomer, unassigned; diastereomer a) [Example 148, Ethyl 4′-oxo-2′-(1′H,3H-spiro[2-benzofuran-1,4′-piperidin]-1′-yl)-4′H-spiro[bicyclo[3.1.0]hexane-3,5′-[1,3]oxazole]-6-carboxylate diastereomer a], the Ki is 1000 nM.

As to `CC1=C(C)CC2(C1)OC(N1CCC3(CC1)OCc1ccccc13)=NC2=O` [Example 115, 7,8-Dimethyl-2-(1′H,3H-spiro[2-benzofuran-1,4′-piperidin]-1′-yl)-1-oxa-3-azaspiro[4.4]nona-2,7-dien-4-one], the Ki is 10 nM.

As to `CC1OC2(CCN(C3=NC(=O)C(Cc4ccccc4)O3)CC2)c2ccccc21` (centres unmarked) [Example 22, 5-Benzyl-2-(3-methyl-1′H,3H-spiro[2-benzofuran-1,4′-piperidin]-1′-yl)-1,3-oxazol-4(5H)-one], the Ki was 1.26 nM.

With `O=C1N=C(N2CCC3(CC2)OCc2ccccc23)OC12CC=CC2` [Example 113, 2-(1′H,3H-Spiro[2-benzofuran-1,4′-piperidin]-1′-yl)-1-oxa-3-azaspiro[4.4]nona-2,7-dien-4-one], the Ki is 100 nM.

Take `CC(C)(C)OC(=O)N1Cc2ccccc2CC2(C1)OC(N1CCC3(CC1)OCc1ccccc13)=NC2=O` (centres unmarked) [Example 137, tert-Butyl 4′-oxo-2′-(1′H,3H-spiro[2-benzofuran-1,4′-piperidin]-1′-yl)-1,5-dihydro-4′H-spiro[2-benzazepine-4,5′-[1,3]oxazole]-2(3H)-carboxylate]: the Ki was 1.58 nM.

`CC(c1ccccc1)C1(C)OC(N2CCC3(CC2)OCc2ccccc23)=NC1=O` (single isomer, unassigned; diastereomer b) [Example 107, 5-Methyl-5-(1-phenylethyl)-2-(1′H,3H-spiro[2-benzofuran-1,4′-piperidin]-1′-yl)-1,3-oxazol-4(5H)-one diastereomer b]: the Ki was 10 nM.

For `CC#CCC1OC(N2CCC3(CC2)OCc2ccccc23)=NC1=O` (centres unmarked) [Example 11, 5-(But-2-yn-1-yl)-2-(1′H,3H-spiro[2-benzofuran-1,4′-piperidin]-1′-yl)-1,3-oxazol-4(5H)-one], the Ki was 50.1 nM.

On to `CCCCCC1CCC2(CC1)OC(N1CCC3(CC1)OCc1ccccc13)=NC2=O` (single isomer, unassigned; diastereomer a) [Example 128, 8-Pentyl-2-(1′H,3H-spiro[2-benzofuran-1,4′-piperidin]-1′-yl)-1-oxa-3-azaspiro[4.5]dec-2-en-4-one diastereomer a], for which the Ki was 20 nM.

On to `O=C1OC2(CCN(C3=NC(=O)C(Cc4ccccc4)O3)CC2)c2ccc(Br)cc21` (centres unmarked) [Example 32, 1′-(5-Benzyl-4-oxo-4,5-dihydro-1,3-oxazol-2-yl)-5-bromo-3H-spiro[2-benzofuran-1,4′-piperidin]-3-one], for which the Ki is 63.1 nM.

As to `O=C1N=C(N2CCC3(CC2)OCc2ccccc23)OC12CCSCC2` [Example 132, 2-(1′H,3H-Spiro[2-benzofuran-1,4′-piperidin]-1′-yl)-1-oxa-8-thia-3-azaspiro[4.5]dec-2-en-4-one], the Ki was 15.8 nM.

On to `O=C1N=C(N2CCC3(CC2)OCc2ccccc23)OC12CCN(Cc1ccccc1)CC2` [Example 135, 8-Benzyl-2-(1′H,3H-spiro[2-benzofuran-1,4′-piperidin]-1′-yl)-1-oxa-3,8-diazaspiro[4.5]dec-2-en-4-one], for which the Ki was 398 nM.

Consider `O=C1N=C(N2CCC3(CC2)OCc2ccccc23)OC12CC=C(C(F)(F)F)C2` (centres unmarked) [Example 117, 2-(1′H,3H-Spiro[2-benzofuran-1,4′-piperidin]-1′-yl)-7-(trifluoromethyl)-1-oxa-3-azaspiro[4.4]nona-2,7-dien-4-one], for which the Ki was 1.26 nM.

Turning to `CCOC(=O)C1[C@H]2CC3(C[C@@H]12)OC(N1CCC2(CC1)OCc1ccccc12)=NC3=O` (single isomer, unassigned; diastereomer b) [Example 149, Ethyl 4′-oxo-2′-(1′H,3H-spiro[2-benzofuran-1,4′-piperidin]-1′-yl)-4′H-spiro[bicyclo[3.1.0]hexane-3,5′-[1,3]oxazole]-6-carboxylate diastereomer b], the Ki is 200 nM.

Turning to `CC1(CC2CCCOC2)OC(N2CCC3(CC2)OCc2ccccc23)=NC1=O` (single isomer, unassigned; diastereomer b) [Example 105, (−)-5-Methyl-2-(1′H,3H-spiro[2-benzofuran-1,4′-piperidin]-1′-yl)-5-(tetrahydro-2H-pyran-3-ylmethyl)-1,3-oxazol-4(5H)-one diastereomer b], the Ki is 501 nM.

On to `CCCCC1OC(N2CCC3(CC2)OCc2ccccc23)=NC1=O` (centres unmarked) [Example 2, 5-Butyl-2-(1′H,3H-spiro[2-benzofuran-1,4′-piperidin]-1′-yl)-1,3-oxazol-4(5H)-one], for which the Ki is 5.01 nM.

For the compound `CC(c1ccccc1)C1(C)OC(N2CCC3(CC2)OCc2ccccc23)=NC1=O` (single isomer, unassigned; diastereomer b) [Example 110, (−)-5-Methyl-5-(1-phenylethyl)-2-(1′H,3H-spiro[2-benzofuran-1,4′-piperidin]-1′-yl)-1,3-oxazol-4(5H)-one diastereomer b], the Ki was 6.31 nM.

On to `C=CCC1(CC(=C)F)OC(N2CCC3(CC2)OCc2ccccc23)=NC1=O` (centres unmarked) [Example 54, 5-Allyl-5-(2-fluoroallyl)-2-(3H-spiro[isobenzofuran-1,4′-piperidine]-1′-yl)oxazol-4(5H)-one], for which the Ki was 631 nM.

With `C=C(C)CC1OC(N2CCC3(CC2)OCc2ccccc23)=NC1=O` (centres unmarked) [Example 9, 5-(2-Methylprop-2-en-1-yl)-2-(1′H,3H-spiro[2-benzofuran-1,4′-piperidin]-1′-yl)-1,3-oxazol-4(5H)-one], the Ki is 2 nM.

Consider `CC1(C(F)c2ccc(Cl)cc2)OC(N2CCC3(CC2)OCc2ccccc23)=NC1=O` (centres unmarked) [Example 92, 5-[(4-Chlorophenyl)(fluoro)methyl]-5-methyl-2-(1′H,3H-spiro[2-benzofuran-1,4′-piperidin]-1′-yl)-1,3-oxazol-4(5H)-one], for which the Ki is 31.6 nM.

For `O=C1N=C(N2CCC3(CC2)OCc2ccccc23)OC1C(F)c1ccc(Cl)cc1` (single isomer, unassigned) [Example 49, 5-((4-Chlorophenyl)fluoromethyl)-2-(1′H,3H-spiro[2-benzofuran-1,4′-piperidin]-1′-yl)-1,3-oxazol-4(5H)-one diastereomer b, enantiomer B], the Ki was 2 nM.

For the compound `CC1(CC2CCCOC2)OC(N2CCC3(CC2)OCc2ccccc23)=NC1=O` (single isomer, unassigned; diastereomer b) [Example 104, (+)-5-Methyl-2-(1′H,3H-spiro[2-benzofuran-1,4′-piperidin]-1′-yl)-5-(tetrahydro-2H-pyran-3-ylmethyl)-1,3-oxazol-4(5H)-one diastereomer b], the Ki is 50.1 nM.

Regarding `O=C1C=C2CC3(CC2C1)OC(N1CCC2(CC1)OCc1ccccc12)=NC3=O` (centres unmarked) [Example 142, 2-(1′H,3H-Spiro[2-benzofuran-1,4′-piperidin]-1′-yl)-3a′,4′-dihydro-1′H,4H-spiro[1,3-oxazole-5,2′-pentalene]-4,5′(3′H)-dione], the Ki was 158 nM.

Turning to `C=C(C)CC1(CC(=C)C)OC(N2CCC3(CC2)OCc2ccccc23)=NC1=O` [Example 56, 5,5-bis(2-Methylprop-2-en-1-yl)-2-(1′H,3H-spiro[2-benzofuran-1,4′-piperidin]-1′-yl)-1,3-oxazol-4(5H)-one], the Ki is 15.8 nM.

As for `O=C1N=C(N2CCC3(CC2)OCc2ccccc23)OC12C[C@@H]1OCCO[C@@H]1C2` (single isomer, unassigned; diastereomer b) [Example 145, 2′-(1′H,3H-Spiro[2-benzofuran-1,4′-piperidin]-1′-yl)-2,3,4a,5,7,7a-hexahydro-4′H-spiro[cyclopenta[b][1,4]dioxine-6,5′-[1,3]oxazol]-4′-one diastereomer b], the Ki was 50.1 nM.

Consider `O=C1N=C(N2CCC3(CC2)OCc2ccccc23)OC12C[C@H]1COC[C@H]1C2` (some centres unmarked) [Example 144, 2′-(1′H,3H-Spiro[2-benzofuran-1,4′-piperidin]-1′-yl)-3a,4,6,6a-tetrahydro-1H,3H,4′H-spiro[cyclopenta[c]furan-5,5′-[1,3]oxazol]-4′-one], for which the Ki is 79.4 nM.
